pIC50: −log10 of the molar value.
Legend:
[1] = target: T1, Angiotensin II Receptor (Bos taurus, UniProt P25104); assay: Receptor Binding Assay: Binding of [^125 I](Sar^1,Ile^8)AngII to beef adrenal cortex membranes; conditions: 60 min, room temperature
T1 construct: The brownish tissue forming the adrenal cortex is scraped off and finely minced with scissors before homogenization; from tissue; host or cells: beef adrenal cortex, microsomal membranes (100,000×g pellet); fresh glands from a local slaughter house (Maxwell-Cohen)
T1 sequence (P25104 1-359): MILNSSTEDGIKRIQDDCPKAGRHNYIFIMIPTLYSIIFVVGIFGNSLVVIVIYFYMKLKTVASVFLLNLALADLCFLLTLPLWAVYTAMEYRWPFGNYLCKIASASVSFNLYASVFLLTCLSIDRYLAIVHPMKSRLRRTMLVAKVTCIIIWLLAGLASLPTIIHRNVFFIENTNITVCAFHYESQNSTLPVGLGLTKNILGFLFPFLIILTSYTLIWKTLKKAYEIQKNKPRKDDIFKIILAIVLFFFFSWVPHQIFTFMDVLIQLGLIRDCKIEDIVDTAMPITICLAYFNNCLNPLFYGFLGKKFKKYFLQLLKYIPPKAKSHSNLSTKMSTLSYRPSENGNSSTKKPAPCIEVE
Text: Beef adrenals are obtained from a local slaughter house (Maxwell-Cohen). [^125 […]. 2200 Ci/mmole, is purchased from Dupont (NEN®, Boston, Mass.). All unlabeled AngII analogs, Dimethylsulfoxide (DMSO), nucleotides, bovine serum albumin (BSA) are purchased from Sigma Chemical Co., St. Louis, Mo. U.S.A. […] Approximately sixteen (16) to twenty (20) beef adrenal glands are processed as follows: fresh adrenal glands received on crushed ice are cleaned of fatty tissues and the tough membranes encapsulating the glands are removed and discarded. The brownish tissue forming the adrenal cortex is scraped off and finely minced with scissors before homogenization. Care is taken to avoid contamination with medullary tissue during dissection. The scraped cortices are suspended in twenty volumes of an ice-cold buffer medium consisting of 10 mM Tris.HCl (pH 7.4 at 22° C.) and containing 1.0 mM EDTA and 0.2M sucrose. Unless otherwise indicated, all subsequent operations are done at 4° C. […] The homogenate is centrifuged first at low speed (3,000×g) for 10 minutes. […] This P2 pellet is discarded and the liquid phase is carefully decanted off in clean centrifuge tubes and recentrifuged at high speed (100,000×g) for 60 minutes. The translucent final pellet is harvested and combined in a small volume (20-50.0 ml) of 50.0 mM Tris.HCl buffer, pH 7.2. A 100 ul aliquot is withdrawn and the protein content of the preparation is determined by the Lowry's method (Lowry, O. H., Rosebrough, […]. and Randall, R. J., Protein measurement with Folin phenol reagent. J. Biol. Chem., […], 265-275, 1951). The pelleted membrane is reconstituted in 50.0 mM Tris.HCl buffer containing 0.1 mM of phenylmethylsulfonyl fluoride (PMSF) to give approximately a protein concentration of 2.5 mg per ml of tissue suspension. […] Receptor Binding Assay: […] In competition studies, experimental compounds are diluted in dimethylsulfoxide (DMSO) and added in 20 ul to wells before the introduction of tissue membranes. […] Assays are performed in triplicate. The wells are left undisturbed for 60 minutes at room temperature. Following incubation, all wells are harvested at once with a Brandel® Harvester especially designed for a 96 well plate (Brandel® Biomedical Research & Development Labs. Inc., Gaithersburg, Md., U.S.A.). The filter discs are washed with 10×1.0 ml of cold 0.9% NaCl to remove unbound ligand. Presoaking the filter sheet in 0.1% polyethyleneimine in normal saline (PEI/Saline) greatly reduces the radioactivity retained by the filter blanks. This method is routinely used. The filters are removed from the filter grid and counted in a Parkard® Cobra Gamma Counter for 1 minutes. (Packard Instrument Co., Downers Grove, Ill, U.S.A.). The binding data are analyzed by the non-linear interactive "LUNDON-1" program (LUNDON SOFTWARE Inc., Cleveland, Ohio U.S.A.).

[2] = system: ANGIOTENSIN II VASOPRESSOR RESPONSE; assay: AII Challenge: blockade of angiotensin II vasopressor response in conscious SHR; type: in vivo, rat (Conscious Male Okamoto-Aoki SHR); conditions: SHR n=2, 3 mg/kg i.v.
Text: By administering a compound of this invention to a rat, and then challenging with angiotensin II, a blockage of the vasopressor response is realized.
Conscious Male Okamoto-Aoki SHR, 16-20 weeks old, weighing approximately 330 g are purchased from Charles River Labs (Wilmington, Mass.). Conscious rats are restrained in a supine position with elastic tape. The area at the base of the tail is locally anesthetized by subcutaneous infiltration with 2% procaine. The ventral caudal artery and vein are isolated, and a cannula made of polyethylene (PE) 10-20 tubing (fused together by heat) is passed into the lower abdominal aorta and vena cava, respectively. The cannula is secured, heparinized (1,000 I.U./ml), sealed and the wound is closed. The animals are placed in plastic restraining cages in an upright position. The cannula is attached to a Statham P23Db pressure transducer, and pulsatile blood pressure is recorded to 10-15 minutes with a Gould Brush recorder. (Chan et al., (Drug Development Res., 18:75-94, 1989).
Angiotensin II (human sequence, Sigma Chem. Co., St. Louis, MO) of 0.05 and 0.1 ug/kg i.v. is injected into all rats (predosing response). Then a test compound, vehicle or a known angiotensin II antagonist is administered i.v., i.p. or orally to each set of rats. The two doses of angiotensin II are given to each rat again at 30, 60, 90, 120, 180, 240 and 300 minutes post dosing the compound or vehicle. The vasopressor response of angiotensin II is measured for the increase in systolic blood pressure in mmHg. The percentage of antagonism or blockade of the vasopressor response of angiotensin II by a compound is calculated using the vasopressor response (increase in systolic blood pressure) of angiotensin II of each rat predosing the compound as 100%. A compound is considered active if at 30 mg/kg i.v. it antagonized at least 50% of the response.

[3] = AII 0.01 mcg/kg IV (so in the source), 30 min post dose
[4] = AII 0.05 mcg/kg IV, 30 min post dose
[5] = AII 0.05 mcg/kg IV, 60 min post dose
[6] = AII 0.05 mcg/kg IV, 90 min post dose
[7] = AII 0.05 mcg/kg IV, 120 min post dose
[8] = AII 0.05 mcg/kg IV, 180 min post dose
[9] = AII 0.05 mcg/kg IV, 240 min post dose
[10] = AII 0.05 mcg/kg IV, 300 min post dose
[11] = AII 0.1 mcg/kg IV, 60 min post dose
[12] = AII 0.1 mcg/kg IV, 90 min post dose
[13] = AII 0.1 mcg/kg IV, 120 min post dose
[14] = AII 0.1 mcg/kg IV, 180 min post dose
[15] = AII 0.1 mcg/kg IV, 240 min post dose
[16] = AII 0.1 mcg/kg IV, 300 min post dose
[17] = AII 0.1 mcg/kg IV, 30 min post dose

Structure (SMILES) | pIC50 [1] | % Inhibition of AII vasopressor response [2, 4] [%] | Average Change (systolic blood pressure response to AII) [2, 4] [mmHg] | % Inhibition of AII vasopressor response [2, 5] [%] | Average Change (systolic blood pressure response to AII) [2, 5] [mmHg] | % Inhibition of AII vasopressor response [2, 6] [%] | Average Change (systolic blood pressure response to AII) [2, 6] [mmHg] | % Inhibition of AII vasopressor response [2, 7] [%] | Average Change (systolic blood pressure response to AII) [2, 7] [mmHg] | % Inhibition of AII vasopressor response [2, 8] [%] | Average Change (systolic blood pressure response to AII) [2, 8] [mmHg] | % Inhibition of AII vasopressor response [2, 9] [%] | Average Change (systolic blood pressure response to AII) [2, 9] [mmHg] | % Inhibition of AII vasopressor response [2, 10] [%] | Average Change (systolic blood pressure response to AII) [2, 10] [mmHg] | % Inhibition of AII vasopressor response [2, 11] [%] | Average Change (systolic blood pressure response to AII) [2, 11] [mmHg] | % Inhibition of AII vasopressor response [2, 12] [%] | Average Change (systolic blood pressure response to AII) [2, 12] [mmHg] | % Inhibition of AII vasopressor response [2, 13] [%] | further results
CCCCc1nc2ccc(C(O)C3CCCS3(=O)=O)cc2c(=O)n1Cc1ccc(-c2ccccc2-c2nn[nH]n2)cc1 (single isomer, unassigned; isomer 1) [Example 15, 2-Butyl-6-[hydroxy(tetrahydro-2-thienyl)methyl-3-[[2'-(1H-tetrazol-5-yl)[1,1'-biphenyl]-4-yl]methyl]-4(3H)-quinazolinone S,S-dioxide isomer 1] | 6.96 | 88 | 5 | 73 | 11 | 83 | 7 | 32 | 27.5 | 42 | 23.5 | 38 | 25 | 26 | 30 | 63 | 18.5 | 54 | 23 | 45 | % Inhibition of AII vasopressor response [2, 3]: 75%; Average Change (systolic blood pressure response to AII) [2, 3]: 12.5 mmHg; Average Change (systolic blood pressure response to AII) [2, 13]: 27.5 mmHg; % Inhibition of AII vasopressor response [2, 14]: 50%; Average Change (systolic blood pressure response to AII) [2, 14]: 25 mmHg; % Inhibition of AII vasopressor response [2, 15]: 50%; Average Change (systolic blood pressure response to AII) [2, 15]: 25 mmHg; % Inhibition of AII vasopressor response [2, 16]: 45%; Average Change (systolic blood pressure response to AII) [2, 16]: 27.5 mmHg
CCCCc1nc2ccc(C(C)(O)C3CCN(C)C3=O)cc2c(=O)n1Cc1ccc(-c2ccccc2-c2nn[nH]n2)cc1 (single isomer, unassigned; isomer 1) [Example 47, 2-Butyl-6-1-hydroxy-1-(1-methyl-2-oxo-3-pyrrolidinyl)ethyl]-3-[[2'-[1H(tetrazol-5yl)-[1,1'-biphenyl]-4-yl]methyl-4(3H)-quinazolinone isomer 1] | 7.40 | 75 | 10 | 75 | 10 | 63 | 15 | 69 | 12.5 | 75 | 10 | 38 | 25 | 29 | 28.5 | 65 | 15 | 76 | 10 | 82 | % Inhibition of AII vasopressor response [2, 17]: 73%; Average Change (systolic blood pressure response to AII) [2, 17]: 11.5 mmHg; Average Change (systolic blood pressure response to AII) [2, 13]: 7.5 mmHg; % Inhibition of AII vasopressor response [2, 14]: 59%; Average Change (systolic blood pressure response to AII) [2, 14]: 17.5 mmHg; % Inhibition of AII vasopressor response [2, 15]: 29%; Average Change (systolic blood pressure response to AII) [2, 15]: 30 mmHg; % Inhibition of AII vasopressor response [2, 16]: 18%; Average Change (systolic blood pressure response to AII) [2, 16]: 35 mmHg
CCCCc1nc2ccc(C(O)C3CCCCN(C)C3=O)cc2c(=O)n1Cc1ccc(-c2ccccc2-c2nn[nH]n2)cc1 (single isomer, unassigned; isomer 1) [Example 54, 2-Butyl-6-[(hexahydro-1-methyl-2-oxo-1H-azepin-3-yl)hydroxymethyl]-3-[[2'-(1H-tetrazol-5-yl)[1,1'biphenyl]-4-yl]methyl-4-(3H)-quinazolinone isomer 1] | 6.37 | – | – | – | – | – | – | – | – | – | – | – | – | – | – | – | – | – | – | – | –
CCCCc1nc2ccc(C(O)C3CCCCN(C)C3=O)cc2c(=O)n1Cc1ccc(-c2ccccc2-c2nn[nH]n2)cc1 (single isomer, unassigned; isomer 2) [Example 55, 2-Butyl-6-[(hexahydro-1-methyl-2-oxo-1H-azepin-3-yl)hydroxymethyl]-3-[[2'-(1H-tetrazol-5-yl)[1,1'-biphenyl]-4-yl]methyl-4(3H)quinazolinone isomer 2] | 6.82 | – | – | – | – | – | – | – | – | – | – | – | – | – | – | – | – | – | – | – | –
CCCCc1nc2ccc(C(O)C3CCCO3)cc2c(=O)n1Cc1ccc(-c2ccccc2-c2nn[nH]n2)cc1 (stereo not shown) [Example 28] | 6.89 | – | – | – | – | – | – | – | – | – | – | – | – | – | – | – | – | – | – | – | –

Source: patent US5288720A, “Angiotensin II receptor blocking 2,3,6 substituted quinazolinones” (American Cyanamid Company, priority 1993, dated 1994)
